Measured values as given in patent publication US20190202840A1, “SALTS OF (S)-7-(1-(9H-PURIN-6-YLAMINO)ETHYL)-6-(3-FLUOROPHENYL)-3-METHYL-5H-THIAZOLO[3,2-A]PYRIMIDIN-5-ONE” (Incyte Corporation, priority 2015, published 2019).

Legend:
human JAK2 = biological target: T1, human JAK2 (Homo sapiens, UniProt O60674); assay: In vitro JAK kinase assay (Example G, HTRF), JAK2; format: biochemical; conditions: ratio of IC50s JAK2 over JAK1, 1 mM ATP
T1 construct: JAK2 (a.a. 828-1132); made in house; host or cells: insect cells (baculovirus)
T1 sequence (O60674 828-1132): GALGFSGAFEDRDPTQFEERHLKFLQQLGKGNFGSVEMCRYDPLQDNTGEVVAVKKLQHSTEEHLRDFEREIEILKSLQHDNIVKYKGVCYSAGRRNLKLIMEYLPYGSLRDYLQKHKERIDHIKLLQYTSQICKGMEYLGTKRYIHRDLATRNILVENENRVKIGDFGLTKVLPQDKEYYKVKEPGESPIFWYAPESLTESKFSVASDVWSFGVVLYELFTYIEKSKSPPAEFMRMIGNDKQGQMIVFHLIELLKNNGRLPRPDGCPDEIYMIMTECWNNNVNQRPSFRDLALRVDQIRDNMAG

human JAK1 = biological target: T2, human JAK1 (Homo sapiens, UniProt P23458); assay: In vitro JAK kinase assay (Example G, HTRF), JAK1; format: biochemical; conditions: 1 mM ATP
T2 construct: human JAK1 (a.a. 837-1142); made in house; host or cells: insect cells (baculovirus)
T2 sequence (P23458 849-1154): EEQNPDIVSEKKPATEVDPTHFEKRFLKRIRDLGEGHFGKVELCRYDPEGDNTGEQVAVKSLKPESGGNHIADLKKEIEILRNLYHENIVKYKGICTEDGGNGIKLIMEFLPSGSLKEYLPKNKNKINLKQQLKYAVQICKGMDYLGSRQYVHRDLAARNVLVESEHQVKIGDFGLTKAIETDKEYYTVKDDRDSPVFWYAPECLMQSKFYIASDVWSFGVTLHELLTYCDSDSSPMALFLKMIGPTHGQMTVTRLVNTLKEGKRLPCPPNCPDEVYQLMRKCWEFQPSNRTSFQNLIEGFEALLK

| JAK2/JAK1 (human JAK2) | IC50 (human JAK1) [µM] | SMILES |
| --- | --- | --- |
| >10 | < 0.01 | N#CCC(C1CCN(c2cccc(Cl)n2)C1)n1cc(-c2ncnc3[nH]ccc23)cn1 (single isomer, unassigned) [Compound 3, 3-[1-(6-chloropyridin-2-yl)pyrrolidin-3-yl]-3-[4-(7H-pyrrolo[2,3-d]pyrimidin-4-yl)-1H-pyrazol-1-yl]propanenitrile] |
| >10 | < 0.1 | C[C@@H](O)c1nc2cnc3ccsc3c2n1[C@H]1CC[C@H](CC#N)OC1 [Compound 1, ((2R,5S)-5-{2-[(1R)-1-hydroxyethyl]-1H-imidazo[4,5-d]thieno[3,2-b]pyridin-1-yl}tetrahydro-2H-pyran-2-yl)acetonitrile] |
| >10 | < 0.01 | N#CCC(C1CCN(c2nc3cccnc3o2)C1)n1cc(-c2ncnc3[nH]ccc23)cn1 (centres unmarked) [Compound 4, 3-(1-[1,3]oxazolo[5,4-b]pyridin-2-ylpyrrolidin-3-yl)-3-[4-(7H-pyrrolo[2,3-d]pyrimidin-4-yl)-1H-pyrazol-1-yl]propanenitrile] |
| >10 | < 0.01 | N#CCC(CN1CCN(C(=O)c2ccc(C#N)cc2F)CC1)n1cc(-c2ncnc3[nH]ccc23)cn1 (centres unmarked) [Compound 5, 4-[(4-{3-cyano-2-[4-(7H-pyrrolo[2,3-d]pyrimidin-4-yl)-1H-pyrazol-1-yl]propyl}piperazin-1-yl)carbonyl]-3-fluorobenzonitrile] |
| >10 | < 0.01 | N#CCC(CN1CCN(C(=O)c2ccc(C#N)cc2F)CC1)n1ccc(-c2ncnc3[nH]ccc23)c1 (centres unmarked) [Compound 6, 4-[(4-{3-cyano-2-[3-(7H-pyrrolo[2,3-d]pyrimidin-4-yl)-1H-pyrrol-1-yl]propyl}piperazin-1-yl)carbonyl]-3-fluorobenzonitrile] |
| >10 | < 0.01 | N#CCC1(n2cc(-c3ncnc4[nH]ccc34)cn2)CN(C2CCN(C(=O)c3ccnc(C(F)(F)F)c3F)CC2)C1 [Compound 7, {1-{1-[3-Fluoro-2-(trifluoromethyl)isonicotinoyl]piperidin-4-yl}-3-[4-(7H-pyrrolo[2,3-d]pyrimidin-4-yl)-1H-pyrazol-1-yl]azetidin-3-yl}acetonitrile] |
| >10 | < 0.01 | N#CCC1(n2cc(-c3ncnc4[nH]ccc34)cn2)CN(C2CCN(C(=O)Nc3ccc(F)cc3C(F)(F)F)CC2)C1 [Compound 8, 4-{3-(Cyanomethyl)-3-[4-(7H-pyrrolo[2,3-d]pyrimidin-4-yl)-1H-pyrazol-1-yl]azetidin-1-yl}-N-[4-fluoro-2-(trifluoromethyl)phenyl]piperidine-1-carboxamide] |
| >10 | < 0.01 | N#CCC1(n2cc(-c3ncnc4[nH]ccc34)cn2)CN(C2CCN(C(=O)c3ccnc(C(F)(F)F)n3)CC2)C1 [Compound 9, [3-[4-(7H-pyrrolo[2,3-d]pyrimidin-4-yl)-1H-pyrazol-1-yl]-1-(1-{[2-(trifluoromethyl)pyrimidin-4-yl]carbonyl}piperidin-4-yl)azetidin-3-yl]acetonitrile] |
| >10 | < 0.01 | N#CC[C@]1(n2cc(-c3ncnc4[nH]ccc34)cn2)C[C@H](N2CCN(C(=O)c3ccnc(C(F)(F)F)n3)CC2)C1 [Compound 10, [trans-1-[4-(7H-pyrrolo[2,3-d]pyrimidin-4-yl)-1H-pyrazol-1-yl]-3-(4-{[2-(trifluoromethyl)pyrimidin-4-yl]carbonyl}piperazin-1-yl)cyclobutyl]acetonitrile] |
| >10 | < 0.01 | N#CC[C@]1(n2cc(-c3ncnc4[nH]ccc34)cn2)C[C@H](N2CCC(Oc3cc(CN4CC(O)C4)cc(C(F)(F)F)n3)CC2)C1 [Compound 11, {trans-3-(4-{[4-[(3-hydroxyazetidin-1-yl)methyl]-6-(trifluoromethyl)pyridin-2-yl]oxy}piperidin-1-yl)-1-[4-(7H-pyrrolo[2,3-d]pyrimidin-4-yl)-1H-pyrazol-1-yl]cyclobutyl}acetonitrile] |
| >10 | < 0.01 | N#CC[C@]1(n2cc(-c3ncnc4[nH]ccc34)cn2)C[C@H](N2CCC(Oc3cc(CN4CCC[C@H]4CO)cc(C(F)(F)F)n3)CC2)C1 [Compound 12, {trans-3-(4-{[4-{[(2S)-2-(hydroxymethyl)pyrrolidin-1-yl]methyl}-6-(trifluoromethyl)pyridin-2-yl]oxy}piperidin-1-yl)-1-[4-(7H-pyrrolo[2,3-d]pyrimidin-4-yl)-1H-pyrazol-1-yl]cyclobutyl}acetonitrile] |
| >10 | < 0.01 | N#CC[C@]1(n2cc(-c3ncnc4[nH]ccc34)cn2)C[C@H](N2CCC(Oc3cc(CN4CCC[C@@H]4CO)cc(C(F)(F)F)n3)CC2)C1 [Compound 13, {trans-3-(4-{[4-{[(2R)-2-(hydroxymethyl)pyrrolidin-1-yl]methyl}-6-(trifluoromethyl)pyridin-2-yl]oxy}piperidin-1-yl)-1-[4-(7H-pyrrolo[2,3-d]pyrimidin-4-yl)-1H-pyrazol-1-yl]cyclobutyl}acetonitrile] |
| >10 | < 0.01 | C[C@H](NC(=O)c1cc(F)c(N2CC(CC#N)(n3cc(-c4ncnc5[nH]ccc45)cn3)C2)cc1F)C(F)(F)F [Compound 16, 4-{3-(cyanomethyl)-3-[4-(7H-pyrrolo[2,3-d]pyrimidin-4-yl)-1H-pyrazol-1-yl]azetidin-1-yl}-2,5-difluoro-N-[(1S)-2,2,2-trifluoro-1-methylethyl]benzamide] |
| >10 | < 0.01 | N#CCC1(n2cc(-c3ncnc4[nH]ccc34)cn2)CN([C@H]2CC[C@@H](Oc3cc(CCO)nc(C(F)(F)F)n3)CC2)C1 [Compound 18, {1-(cis-4-{[6-(2-hydroxyethyl)-2-(trifluoromethyl)pyrimidin-4-yl]oxy}cyclohexyl)-3-[4-(7H-pyrrolo[2,3-d]pyrimidin-4-yl)-1H-pyrazol-1-yl]azetidin-3-yl}acetonitrile] |
| >10 | < 0.01 | CCNCc1cc(O[C@H]2CC[C@@H](N3CC(CC#N)(n4cc(-c5ncnc6[nH]ccc56)cn4)C3)CC2)nc(C(F)(F)F)c1 [Compound 19, {1-(cis-4-{[4-[(ethylamino)methyl]-6-(trifluoromethyl)pyridin-2-yl]oxy}cyclohexyl)-3-[4-(7H-pyrrolo[2,3-d]pyrimidin-4-yl)-1H-pyrazol-1-yl]azetidin-3-yl}acetonitrile] |
| >10 | < 0.01 | CC(C)(O)c1cc(O[C@H]2CC[C@@H](N3CC(CC#N)(n4cc(-c5ncnc6[nH]ccc56)cn4)C3)CC2)nc(C(F)(F)F)c1 [Compound 20, {1-(cis-4-{[4-(1-hydroxy-1-methylethyl)-6-(trifluoromethyl)pyridin-2-yl]oxy}cyclohexyl)-3-[4-(7H-pyrrolo[2,3-d]pyrimidin-4-yl)-1H-pyrazol-1-yl]azetidin-3-yl}acetonitrile] |
| >10 | < 0.01 | N#CCC1(n2cc(-c3ncnc4[nH]ccc34)cn2)CN([C@H]2CC[C@@H](Oc3cc(CN4CC[C@@H](O)C4)cc(C(F)(F)F)n3)CC2)C1 [Compound 21, {1-(cis-4-{[4-{[(3R)-3-hydroxypyrrolidin-1-yl]methyl}-6-(trifluoromethyl)pyridin-2-yl]oxy}cyclohexyl)-3-[4-(7H-pyrrolo[2,3-d]pyrimidin-4-yl)-1H-pyrazol-1-yl]azetidin-3-yl}acetonitrile] |
| >10 | < 0.01 | N#CCC1(n2cc(-c3ncnc4[nH]ccc34)cn2)CN([C@H]2CC[C@@H](Oc3cc(CN4CC[C@H](O)C4)cc(C(F)(F)F)n3)CC2)C1 [Compound 22, {1-(cis-4-{[4-{[(3S)-3-hydroxypyrrolidin-1-yl]methyl}-6-(trifluoromethyl)pyridin-2-yl]oxy}cyclohexyl)-3-[4-(7H-pyrrolo[2,3-d]pyrimidin-4-yl)-1H-pyrazol-1-yl]azetidin-3-yl}acetonitrile] |
| >10 | < 0.01 | C[C@@H](CO)NCc1cc(OC2CCN([C@H]3C[C@](CC#N)(n4cc(-c5ncnc6[nH]ccc56)cn4)C3)CC2)nc(C(F)(F)F)c1 [Compound 23, {trans-3-(4-{[4-({[(1S)-2-hydroxy-1-methylethyl]amino}methyl)-6-(trifluoromethyl)pyridin-2-yl]oxy}piperidin-1-yl)-1-[4-(7H-pyrrolo[2,3-d]pyrimidin-4-yl)-1H-pyrazol-1-yl]cyclobutyl}acetonitrile] |
| >10 | < 0.01 | C[C@@H](O)CNCc1cc(OC2CCN([C@H]3C[C@](CC#N)(n4cc(-c5ncnc6[nH]ccc56)cn4)C3)CC2)nc(C(F)(F)F)c1 [Compound 24, {trans-3-(4-{[4-({[(2R)-2-hydroxypropyl]amino}methyl)-6-(trifluoromethyl)pyridin-2-yl]oxy}piperidin-1-yl)1-[4-(7H-pyrrolo[2,3-d]pyrimidin-4-yl)-1H-pyrazol-1-yl]cyclobutyl}acetonitrile] |
| >10 | < 0.01 | C[C@H](O)CNCc1cc(OC2CCN([C@H]3C[C@](CC#N)(n4cc(-c5ncnc6[nH]ccc56)cn4)C3)CC2)nc(C(F)(F)F)c1 [Compound 25, {trans-3-(4-{[4-({[(2S)-2-hydroxypropyl]amino}methyl)-6-(trifluoromethyl)pyridin-2-yl]oxy}piperidin-1-yl)-1-[4-(7H-pyrrolo[2,3-d]pyrimidin-4-yl)-1H-pyrazol-1-yl]cyclobutyl}acetonitrile] |
| >10 | < 0.01 | N#CC[C@]1(n2cc(-c3ncnc4[nH]ccc34)cn2)C[C@H](N2CCC(Oc3cc(CCO)cc(C(F)(F)F)n3)CC2)C1 [Compound 26, {trans-3-(4-{[4-(2-hydroxyethyl)-6-(trifluoromethyl)pyridin-2-yl]oxy}piperidin-1-yl)-1-[4-(7H-pyrrolo[2,3-d]pyrimidin-4-yl)-1H-pyrazol-1-yl]cyclobutyl}acetonitrile] |
